Results published in ChEMBL document CHEMBL1240419, “Synthesis and antibacterial activity of 3-O-carbamoyl derivatives of 6,11-di-O-methylerythromycin A: a novel class of acylides” (2010).
≈ marks a conversion by molar mass, not a printed value.

What was measured:
Assay type in all cases: functional
Streptococcus pneumoniae [1] = assay: Antibacterial activity against erythromycin-susceptible Streptococcus pneumoniae ATCC 49619 by broth microdilution method
Haemophilus influenzae [2] = assay: Antibacterial activity against ampicillin-resistant Haemophilus influenzae 3300 by broth microdilution method
Streptococcus pneumoniae [3] = assay: Antibacterial activity against erythromycin-resistant Streptococcus pneumoniae 3469 by broth microdilution method
Staphylococcus aureus [4] = assay: Antibacterial activity against erythromycin, methicillin-resistant Staphylococcus aureus A333 by broth microdilution method
Staphylococcus aureus [5] = assay: Antibacterial activity against erythromycin-susceptible Staphylococcus aureus ATCC 25923 by broth microdilution method
Staphylococcus aureus [6] = assay: Antibacterial activity against erythromycin-resistant, methicillin-susceptible Staphylococcus aureus A265 by broth microdilution method
Haemophilus influenzae [7] = assay: Antibacterial activity against ampicillin-susceptible Haemophilus influenzae ATCC 49247 by broth microdilution method

Row | Compound | MIC (Streptococcus pneumoniae [1]) | MIC (Haemophilus influenzae [2]) | MIC (Streptococcus pneumoniae [3]) | MIC (Staphylococcus aureus [4]) | MIC (Staphylococcus aureus [5]) | MIC (Staphylococcus aureus [6]) | MIC (Haemophilus influenzae [7])
1 | CC[C@H]1OC(=O)[C@H](C)[C@@H](OC(=O)NCc2ccc(OC)cc2)[C@H](C)[C@@H](O[C@@H]2O[C@H](C)C[C@H](N(C)C)[C@H]2O)[C@](C)(OC)C[C@@H](C)C(=O)[C@@H](C)[C@@H](OC)[C@]1(C)O | 0.5 µg/mL (≈ 0.652 µM) | 0.5 µg/mL (≈ 0.652 µM) | 0.5 µg/mL (≈ 0.652 µM) | > 64 µg/mL | 0.125 µg/mL (≈ 0.163 µM) | 0.125 µg/mL (≈ 0.163 µM) | 1 µg/mL (≈ 1.3 µM)
2 | CC[C@H]1OC(=O)[C@H](C)[C@@H](OC(=O)NCc2ccc(F)cc2)[C@H](C)[C@@H](O[C@@H]2O[C@H](C)C[C@H](N(C)C)[C@H]2O)[C@](C)(OC)C[C@@H](C)C(=O)[C@@H](C)[C@@H](OC)[C@]1(C)O | 0.125 µg/mL (≈ 0.166 µM) | 4 µg/mL (≈ 5.3 µM) | 0.125 µg/mL (≈ 0.166 µM) | > 64 µg/mL | 4 µg/mL (≈ 5.3 µM) | 0.125 µg/mL (≈ 0.166 µM) | 4 µg/mL (≈ 5.3 µM)
3 | CC[C@H]1OC(=O)[C@H](C)[C@@H](OC(=O)NCc2ccc(Cl)cc2)[C@H](C)[C@@H](O[C@@H]2O[C@H](C)C[C@H](N(C)C)[C@H]2O)[C@](C)(OC)C[C@@H](C)C(=O)[C@@H](C)[C@@H](OC)[C@]1(C)O | 0.125 µg/mL (≈ 0.162 µM) | 4 µg/mL (≈ 5.19 µM) | 0.5 µg/mL (≈ 0.648 µM) | > 64 µg/mL | 4 µg/mL (≈ 5.19 µM) | 0.125 µg/mL (≈ 0.162 µM) | 2 µg/mL (≈ 2.59 µM)
4 | CC[C@H]1OC(=O)[C@H](C)[C@@H](OC(=O)NCc2ccc(Br)cc2)[C@H](C)[C@@H](O[C@@H]2O[C@H](C)C[C@H](N(C)C)[C@H]2O)[C@](C)(OC)C[C@@H](C)C(=O)[C@@H](C)[C@@H](OC)[C@]1(C)O | 0.125 µg/mL (≈ 0.153 µM) | 2 µg/mL (≈ 2.45 µM) | 0.125 µg/mL (≈ 0.153 µM) | 32 µg/mL (≈ 39.2 µM) | 0.125 µg/mL (≈ 0.153 µM) | 0.125 µg/mL (≈ 0.153 µM) | 2 µg/mL (≈ 2.45 µM)
5 | CC[C@H]1OC(=O)[C@H](C)[C@@H](OC(=O)NCc2ccc(O)cc2)[C@H](C)[C@@H](O[C@@H]2O[C@H](C)C[C@H](N(C)C)[C@H]2O)[C@](C)(OC)C[C@@H](C)C(=O)[C@@H](C)[C@@H](OC)[C@]1(C)O | 1 µg/mL (≈ 1.33 µM) | 1 µg/mL (≈ 1.33 µM) | 32 µg/mL (≈ 42.5 µM) | > 64 µg/mL | 1 µg/mL (≈ 1.33 µM) | 0.25 µg/mL (≈ 0.332 µM) | 1 µg/mL (≈ 1.33 µM)
6 | CC[C@H]1OC(=O)[C@H](C)[C@@H](OC(=O)NCc2ccc(C)cc2)[C@H](C)[C@@H](O[C@@H]2O[C@H](C)C[C@H](N(C)C)[C@H]2O)[C@](C)(OC)C[C@@H](C)C(=O)[C@@H](C)[C@@H](OC)[C@]1(C)O | 0.125 µg/mL (≈ 0.166 µM) | 4 µg/mL (≈ 5.33 µM) | 0.25 µg/mL (≈ 0.333 µM) | 64 µg/mL (≈ 85.2 µM) | 0.25 µg/mL (≈ 0.333 µM) | 0.125 µg/mL (≈ 0.166 µM) | 4 µg/mL (≈ 5.33 µM)
7 | CC[C@H]1OC(=O)[C@H](C)[C@@H](OC(=O)NCCc2ccccc2)[C@H](C)[C@@H](O[C@@H]2O[C@H](C)C[C@H](N(C)C)[C@H]2O)[C@](C)(OC)C[C@@H](C)C(=O)[C@@H](C)[C@@H](OC)[C@]1(C)O | 4 µg/mL (≈ 5.33 µM) | 4 µg/mL (≈ 5.33 µM) | 64 µg/mL (≈ 85.2 µM) | > 64 µg/mL | 8 µg/mL (≈ 10.7 µM) | 8 µg/mL (≈ 10.7 µM) | 4 µg/mL (≈ 5.33 µM)
8 | CC[C@H]1OC(=O)[C@H](C)[C@@H](OC(=O)NCCc2ccc(OC)cc2)[C@H](C)[C@@H](O[C@@H]2O[C@H](C)C[C@H](N(C)C)[C@H]2O)[C@](C)(OC)C[C@@H](C)C(=O)[C@@H](C)[C@@H](OC)[C@]1(C)O | 0.125 µg/mL (≈ 0.16 µM) | 16 µg/mL (≈ 20.5 µM) | 0.125 µg/mL (≈ 0.16 µM) | > 64 µg/mL | 4 µg/mL (≈ 5.12 µM) | 8 µg/mL (≈ 10.2 µM) | 16 µg/mL (≈ 20.5 µM)
9 | CC[C@H]1OC(=O)[C@H](C)[C@@H](OC(=O)NCCc2ccc(OC)c(OC)c2)[C@H](C)[C@@H](O[C@@H]2O[C@H](C)C[C@H](N(C)C)[C@H]2O)[C@](C)(OC)C[C@@H](C)C(=O)[C@@H](C)[C@@H](OC)[C@]1(C)O | 0.125 µg/mL (≈ 0.154 µM) | 32 µg/mL (≈ 39.5 µM) | 0.25 µg/mL (≈ 0.308 µM) | > 64 µg/mL | 2 µg/mL (≈ 2.47 µM) | 8 µg/mL (≈ 9.86 µM) | 32 µg/mL (≈ 39.5 µM)
10 | CC[C@H]1OC(=O)[C@H](C)[C@@H](OC(=O)NCCc2ccc(O)cc2)[C@H](C)[C@@H](O[C@@H]2O[C@H](C)C[C@H](N(C)C)[C@H]2O)[C@](C)(OC)C[C@@H](C)C(=O)[C@@H](C)[C@@H](OC)[C@]1(C)O | 0.25 µg/mL (≈ 0.326 µM) | 8 µg/mL (≈ 10.4 µM) | 0.25 µg/mL (≈ 0.326 µM) | > 64 µg/mL | 4 µg/mL (≈ 5.22 µM) | 2 µg/mL (≈ 2.61 µM) | 8 µg/mL (≈ 10.4 µM)
11 | CC[C@H]1OC(=O)[C@H](C)[C@@H](OC(=O)NCCc2ccc(F)cc2)[C@H](C)[C@@H](O[C@@H]2O[C@H](C)C[C@H](N(C)C)[C@H]2O)[C@](C)(OC)C[C@@H](C)C(=O)[C@@H](C)[C@@H](OC)[C@]1(C)O | 0.125 µg/mL (≈ 0.163 µM) | 8 µg/mL (≈ 10.4 µM) | 0.125 µg/mL (≈ 0.163 µM) | 32 µg/mL (≈ 41.6 µM) | 2 µg/mL (≈ 2.6 µM) | 2 µg/mL (≈ 2.6 µM) | 8 µg/mL (≈ 10.4 µM)
12 | CC[C@H]1OC(=O)[C@H](C)[C@@H](OC(=O)NCCc2ccccc2F)[C@H](C)[C@@H](O[C@@H]2O[C@H](C)C[C@H](N(C)C)[C@H]2O)[C@](C)(OC)C[C@@H](C)C(=O)[C@@H](C)[C@@H](OC)[C@]1(C)O | 0.125 µg/mL (≈ 0.163 µM) | 16 µg/mL (≈ 20.8 µM) | 0.125 µg/mL (≈ 0.163 µM) | 64 µg/mL (≈ 83.2 µM) | 8 µg/mL (≈ 10.4 µM) | 16 µg/mL (≈ 20.8 µM) | 16 µg/mL (≈ 20.8 µM)
